Test results: EP3050567B1, “COMPOUND FOR ACTIVATING AMPK AND USES THEREOF” (Energenesis Biomedical Co., Ltd., priority 2013, dated 2015)

Experiments:
[1] = system: AMPK; assay: AMPK activation assay (phospho-AMPK Thr172 western blot) in Neuro2A cells; assay type: cell-based, mouse; settings: 30 min
Method: (§1) Effects of adenine on AMPK activation were evaluated based on the phosphorylation of AMPK protein upon adenine treatment. Mouse muscle cell C2C12, mouse fibroblast 3T3, human liver carcinoma cell Hep G2, human breast adenocarcinoma cell line MCF7 and human colon adenocarcinoma grade II cell line HT29, human umbilical vein endothelial cell HUVEC, Human acute monocytic leukemiacell THP1, human macrophage cell U937, murine microglia cell BV-2, and mouse neuroblastoma cell Neuro2A and dermal papilla cell were cultured in high-glucose Dulbecco's modified Eagle's medium (DMEM) containing 10% fetal bovine serum (FBS), 4 mM L-glutamine, 2 mM sodium pyruvate and 1% penicillin/streptomycin (Invitrogen GibcoBRL, Carlsbad, Calif., USA) at 37°C, under 5% CO2. Cells were plated at 3 × 10^5 per well in 6-well plates. Twenty-four hours after plating, adenine was added to the culture media as indicated. After 30 min cells were lysed and subject to western blot analysis. Equal amount of protein from each sample was separated by SDS-PAGE and then electroblotted on to PVDF membranes. Membranes were blocked with 3% BSA in PBS for 60 min and incubated with an anti-phospho-AMPK (Thr172) antibody (1:2,000, Cell signaling) or an anti-AMPK antibody (1:2,000, Cell signaling) at 4°C for 16 h followed by the corresponding secondary antibody for 1 h at room temperature (RT). Immunoreactive bands were detected by enhanced chemiluminescence and recorded using Kodak film. The detected signals were scanned and then quantified using TotalLab Quant software (TotalLab).

[2] = system: Human umbilical vein endothelial cells (HUVECs); assay: ROS production (H2DCF-DA) under high glucose; assay type: cell-based; settings: 30 mM glucose, 24 h
Method: Human umbilical vein endothelial cells (HUVECs) were cultured in Dulbecco's modified Eagle's medium (DMEM) containing 10% fetal bovine serum (FBS), 4 mM L-glutamine, 2 mM sodium pyruvate and 1% penicillin/streptomycin (Invitrogen GibcoBRL, Carlsbad, Calif., USA) at 37°C under 5% CO2. Cells were plated at 2×10^4 per well in black 96-well. Twenty-four hours after plating, medium was changed to fresh DMEM containing either 5.6 or 30 mM glucose and treated with indicated concentration of adenine. Twenty-four hours after treatment, the intracellular ROS was detected using H2DCF-DA. Cells were washed once with PBS and then incubated with 100 µM DCF at 37°C for 30 min. Then the fluorescence of DCF was measured using a Fluorescence Microplate Reader System at 485-nm excitation and 530-nm emission wavelengths.

[3] = system: IL-6; assay: LPS-induced inflammatory response in THP1 macrophages, secreted IL-6 (ELISA); assay type: cell-based, human; settings: 50 ng LPS 6 hr
Method: (§2) Effects of adenine on inflammatory response were evaluated in human THP1 macrophage by examining protein level of intracellular COX-2 and secreted TNFα, IL-1β and IL-6. Differentiation of THP1 monocytes into macrophages was induced by 50 nM PMA for 24 hr. THP1 macrophages were further stimulated by 50 ng LPS for 6 hr in the presence of 10-600 µM of adenine or vehicle followed by cell lysis and western blot analysis. Equal amounts of protein were separated by SDS-PAGE and then electroblotted on to PVDF membranes. Membranes were blocked with 3% BSA in PBS for 60 min and incubated with an anti-COX-2 antibody (1:1,000, Cell signaling), an anti-actin antibody (1:5,000, Cell signaling) at 4° C for 16 h followed by the corresponding secondary antibody for 1 h at room temperature (RT). Immunoreactive bands were detected by enhanced chemiluminescence and recorded using Kodak film. The detected signals were scanned and then quantified using TotalLab Quant software (TotalLab). The secreted TNFα, IL-1β and IL-6 were analyzed by enzyme-linked immunosorbent assays.

[4] = system: IL-1β; assay: LPS-induced inflammatory response in THP1 macrophages, secreted IL-1β (ELISA); assay type: cell-based, human; settings: 50 ng LPS 6 hr
Method: as §2

[5] = system: AMPK; assay: AMPK activation assay (phospho-AMPK Thr172 western blot) in BV-2 cells; assay type: cell-based, murine; settings: 30 min
Method: as §1

[6] = system: AMPK; assay: AMPK activation assay (phospho-AMPK Thr172 western blot) in Hep G2 cells; assay type: cell-based, human; settings: 30 min
Method: as §1

[7] = system: Aβ infusion mice; assay: Aβ-induced Alzheimer's disease model mice, Morris water maze assay; assay type: in vivo, C57BL/6J mice; settings: AD mice, daily IP adenine 0.01, 0.1, 5 or 30 mg/kg for 4 weeks, vs control AD mice
Method: Aβ25-35 was purchased from Sigma-Aldrich (St. Louis, Missouri). The peptides were dissolved in distilled saline and aggregated by incubation at 37°C for 7 days before injection. C57BL/6J mice were maintained at 22° C under a 12-h light/dark cycle. Adult mice were anesthetized by ketamine (500 mg/kg) and xylazine (100 mg/kg) and placed in a stereotaxic frame. Five nmol of the aggregated Aβ25-35 were injected into the lateral ventricle using a 10 µl Hamilton syringe. The target anterior-posterior (AP), medial-lateral (ML) and dorsoventral coordinates were -0.5 mm, ±1 mm and -2.5 mm relative to the bregma. To evaluate the effect of adenine on neurodegenerative disease, Aβ infusion mice were daily intraperitoneally injected with 0.01, 0.1, 5 or 30 mg/kg bodyweight of adenine or vehicle for 4 weeks. The cognitive functions of these mice were analyzed by using Morris water maze assay after 4 weeks injection. The water maze was performed in a circular pool filled with water and a platform was submerged below the water's surface in the target quadrant for hidden platform test. During the 5-day hidden platform test, mice were randomly placed into starting points of the pool in each daily trial (6 trials per day). […] Mice were allowed to swim in the maze for 60 s and recorded by a video camera. The latency to find the platform and swim paths was analyzed by software.

[8] = system: Hep G2 cells; assay: Tumor growth assay, Hep G2 implanted subcutaneously; assay type: in vivo; settings: Hep G2 implanted NOD-SCID mice, daily IP adenine 5, 20 or 50 mg/kg, 14 days post implantation, vs control mice
Method: Human liver hepatocellular carcinoma cell line Hep G2 were cultured in high-glucose Dulbecco's modified Eagle's medium (DMEM) containing 10% fetal bovine serum (FBS), 4 mM L-glutamine, 2 mM sodium pyruvate and 1% penicillin/streptomycin (Invitrogen GibcoBRL, Carlsbad, Calif., USA) at 37°C under 5% CO2. For tumor implantation, 5 × 10^6 Hep G2 cells were injected subcutaneously into 8-week-old male nonobese diabetic-severe combined immunodeficiency (NOD-SCID) mice. After implantation, the mice were daily intraperitoneally injected with 5, 20 or 50 mg/kg body weight of adenine and the tumor size was monitored every 3 days.

Nc1ncnc2nc[nH]c12 [Adenine, adenine]
AMPK activation (fold to control) ([1]; adenine 1 microM): 1.2 fold to control | AMPK activation (fold to control) ([1]; adenine 10 microM): 2.1 fold to control | AMPK activation (fold to control) ([1]; adenine 100 microM): 3.4 fold to control | ROS production (% of 5.6 mM glucose) ([2]; adenine 10 microM): 211 ± 4.3 % of 5.6 mM glucose | ROS production (% of 5.6 mM glucose) ([2]; adenine 100 microM): 116 ± 1.7 % of 5.6 mM glucose | ROS production (% of 5.6 mM glucose) ([2]; adenine 200 microM): 38.1 ± 2.9 % of 5.6 mM glucose | ROS production (% of 5.6 mM glucose) ([2]; adenine 600 microM): 21.7 ± 3.1 % of 5.6 mM glucose | ROS production (% of 5.6 mM glucose) ([2]; adenine 1200 microM): 22.4 ± 2.5 % of 5.6 mM glucose | IL-6 (% to control) ([3]; adenine 10 microM): 88±6.3 % to control | IL-6 (% to control) ([3]; adenine 100 microM): 21±7.8 % to control | IL-6 (% to control) ([3]; adenine 600 microM): 14±6.2 % to control | IL-1β □ (%to control) ([4]; adenine 10 microM): 91±8.4 %to control | IL-1β □ (%to control) ([4]; adenine 100 microM): 29±5.5 %to control | IL-1β □ (%to control) ([4]; adenine 600 microM): 17±3.7 %to control | AMPK activation (fold to control) ([5]; adenine 1 microM): 1.2 fold to control | AMPK activation (fold to control) ([5]; adenine 10 microM): 1.7 fold to control | AMPK activation (fold to control) ([5]; adenine 40 microM): 2.6 fold to control | AMPK activation (fold to control) ([5]; adenine 160 microM): 3.2 fold to control | AMPK activation (fold to control) ([6]; adenine 1 microM): 1.1 fold to control | AMPK activation (fold to control) ([6]; adenine 10 microM): 2.1 fold to control | AMPK activation (fold to control) ([6]; adenine 100 microM): 3.3 fold to control | AMPK activation (fold to control) ([6]; adenine 200 microM): 3.8 fold to control | AMPK activation (fold to control) ([6]; adenine 600 microM): 4.2 fold to control | time to find platform (hidden platform test) ([7]; dose-dependent): significantly shorter time | percentage time in target quadrant (probe assay) [7]: higher percentage time | growth of tumor [8]: significantly retarded
